# Values quoted from earlier work, collected in patent publication US20020132021A1, “Elicited plant products” (priority 1997, published 2002).
# Tested on: indole alkaloid pathway
# Details: jasmonic acid addition, dosage studies
smiles,measurement,value
CC/C=C\C[C@H]1C(=O)CC[C@@H]1CC(=O)O [Jasmonic acid],increase in the specific yield of ajmalicine,80%
same,increase in the specific yield of horhammericine,500%
same,increase in the specific yield of lochnericine,150%
same,increase in the specific yield of serpentine,60%
